Laboratory results: article PMC5144078, “Bifidobacterium breve UCC2003 metabolises the human milk oligosaccharides lacto-N-tetraose and lacto-N-neo-tetraose through overlapping, yet distinct pathways” (Scientific Reports, 2016)

How the values were obtained:
Test in all cases: HPAEC-PAD product analysis
LntA (LntAHis) = target: T1, LntA (LntAHis) (Bifidobacterium breve, UniProt D4BMY8); assay type: biochemical; settings: 20 mM MOPS pH 7.0, 37 °C, 24 h, 1 mg/ml substrate
T1 construct: gene BIFBRE_03435; GH42 beta-galactosidase; purified His-tagged protein

LacZ6 (LacZ6His) = target: T2, LacZ6 (LacZ6His) (Bifidobacterium breve, UniProt D4BR09); settings: 20 mM MOPS pH 7.0, 37 °C, 24 h, 1 mg/ml substrate
T2 construct: gene BIFBRE_04539

NahA (NahAHis) = target: T3, NahA (NahAHis) (Bifidobacterium breve, UniProt D4BR02); assay type: biochemical; settings: MOPS pH 7.0, 37 °C; lacto-N-triose made in situ from LNT or LNnT by LntA, LntA heat-denatured before NahA addition
T3 construct: gene BIFBRE_04532; GH20 beta-N-acetylhexosaminidase; N-terminal His10 tag; gene of 660 codons; expressed in Lactococcus lactis NZ9000
T3 sequence (D4BR02 entry or part of it): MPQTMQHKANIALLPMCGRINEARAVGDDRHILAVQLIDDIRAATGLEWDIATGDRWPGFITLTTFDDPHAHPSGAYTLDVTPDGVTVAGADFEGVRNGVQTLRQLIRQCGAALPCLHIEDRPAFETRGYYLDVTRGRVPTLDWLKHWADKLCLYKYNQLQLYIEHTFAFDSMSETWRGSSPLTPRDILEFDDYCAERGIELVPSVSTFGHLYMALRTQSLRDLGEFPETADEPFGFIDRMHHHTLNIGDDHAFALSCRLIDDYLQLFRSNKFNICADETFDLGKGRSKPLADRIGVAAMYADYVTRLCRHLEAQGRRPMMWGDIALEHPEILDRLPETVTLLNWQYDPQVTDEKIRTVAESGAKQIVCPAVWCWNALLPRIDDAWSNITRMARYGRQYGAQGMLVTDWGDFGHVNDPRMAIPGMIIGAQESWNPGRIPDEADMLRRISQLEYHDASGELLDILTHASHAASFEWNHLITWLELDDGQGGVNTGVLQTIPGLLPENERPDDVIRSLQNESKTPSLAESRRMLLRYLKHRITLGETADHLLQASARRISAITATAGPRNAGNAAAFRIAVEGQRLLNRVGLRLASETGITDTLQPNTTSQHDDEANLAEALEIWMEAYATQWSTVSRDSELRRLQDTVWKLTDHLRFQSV

T1 sequence (D4BMY8 1-691): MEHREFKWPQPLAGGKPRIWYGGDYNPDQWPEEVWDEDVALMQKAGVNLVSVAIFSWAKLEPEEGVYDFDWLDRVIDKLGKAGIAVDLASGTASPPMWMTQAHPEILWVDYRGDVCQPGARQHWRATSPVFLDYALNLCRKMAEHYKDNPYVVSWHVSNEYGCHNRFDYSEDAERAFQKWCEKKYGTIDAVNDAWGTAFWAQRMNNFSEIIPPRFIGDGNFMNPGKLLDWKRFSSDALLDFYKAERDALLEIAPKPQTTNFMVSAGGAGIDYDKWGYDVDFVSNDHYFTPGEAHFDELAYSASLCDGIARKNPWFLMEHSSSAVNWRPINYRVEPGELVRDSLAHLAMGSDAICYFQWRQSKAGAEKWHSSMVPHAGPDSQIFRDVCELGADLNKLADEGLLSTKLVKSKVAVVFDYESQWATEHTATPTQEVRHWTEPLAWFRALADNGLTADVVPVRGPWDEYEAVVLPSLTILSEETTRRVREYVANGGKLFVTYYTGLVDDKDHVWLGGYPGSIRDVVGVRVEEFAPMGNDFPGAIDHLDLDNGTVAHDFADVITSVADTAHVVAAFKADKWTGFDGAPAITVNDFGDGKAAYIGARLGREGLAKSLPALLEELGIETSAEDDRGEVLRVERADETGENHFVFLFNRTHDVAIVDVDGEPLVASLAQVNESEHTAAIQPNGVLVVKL
T2 sequence (D4BR09 1-1045): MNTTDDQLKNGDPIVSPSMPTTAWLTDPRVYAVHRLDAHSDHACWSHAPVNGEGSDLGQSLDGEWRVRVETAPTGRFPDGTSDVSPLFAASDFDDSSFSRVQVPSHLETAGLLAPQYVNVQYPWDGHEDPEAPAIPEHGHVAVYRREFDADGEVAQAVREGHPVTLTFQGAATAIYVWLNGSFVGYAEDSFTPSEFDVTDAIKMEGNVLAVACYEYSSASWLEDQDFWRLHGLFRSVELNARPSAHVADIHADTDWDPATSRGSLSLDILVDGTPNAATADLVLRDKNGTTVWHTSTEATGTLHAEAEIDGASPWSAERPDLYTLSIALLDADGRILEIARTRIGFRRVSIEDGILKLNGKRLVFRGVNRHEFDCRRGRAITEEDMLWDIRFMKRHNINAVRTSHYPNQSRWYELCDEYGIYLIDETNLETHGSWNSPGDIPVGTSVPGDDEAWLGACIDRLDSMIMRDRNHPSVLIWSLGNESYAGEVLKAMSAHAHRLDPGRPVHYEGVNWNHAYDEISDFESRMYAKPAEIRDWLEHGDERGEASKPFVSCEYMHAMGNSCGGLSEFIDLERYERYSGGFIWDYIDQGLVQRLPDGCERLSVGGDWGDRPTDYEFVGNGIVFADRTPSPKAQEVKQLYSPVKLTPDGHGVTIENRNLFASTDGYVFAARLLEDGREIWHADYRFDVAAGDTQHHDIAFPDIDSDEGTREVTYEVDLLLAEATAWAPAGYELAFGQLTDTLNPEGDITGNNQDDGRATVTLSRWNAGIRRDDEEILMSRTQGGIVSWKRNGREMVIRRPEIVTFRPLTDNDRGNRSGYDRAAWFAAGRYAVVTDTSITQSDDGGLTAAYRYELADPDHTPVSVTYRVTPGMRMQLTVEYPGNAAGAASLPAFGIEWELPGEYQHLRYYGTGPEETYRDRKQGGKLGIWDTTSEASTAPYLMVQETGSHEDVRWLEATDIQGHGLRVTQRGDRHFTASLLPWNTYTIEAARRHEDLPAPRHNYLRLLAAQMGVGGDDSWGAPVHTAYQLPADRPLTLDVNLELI

Compound | HPAEC-PAD product analysis (LntA (LntAHis)) | HPAEC-PAD product analysis (LacZ6 (LacZ6His)) | HPAEC-PAD product analysis (NahA (NahAHis))
CC(=O)N[C@H]1[C@H](O[C@H]2[C@@H](O)[C@@H](CO)O[C@@H](O[C@H]3[C@H](O)[C@@H](O)C(O)O[C@@H]3CO)[C@@H]2O)O[C@H](CO)[C@@H](O)[C@@H]1O[C@@H]1O[C@H](CO)[C@H](O)[C@H](O)[C@H]1O (stereo partly shown) [LNT, lacto-N-tetraose] | Purified LntAHis was shown to remove the galactose moiety at the non-reducing end | – | –
CC(=O)N[C@H]1[C@H](O[C@H]2[C@@H](O)[C@@H](CO)O[C@@H](O[C@H]3[C@H](O)[C@@H](O)C(O)O[C@@H]3CO)[C@@H]2O)O[C@H](CO)[C@@H](O[C@@H]2O[C@H](CO)[C@H](O)[C@H](O)[C@H]2O)[C@@H]1O (stereo partly shown) [LNnT, lacto-N-neotetraose] | Purified LntAHis was capable of removing the galactose moiety at the non-reducing end of LNnT | Purified LacZ2His and LacZ6His were, under the conditions applied, also capable of hydrolysing LNnT | –
CC(=O)N[C@H]1[C@H](O[C@H]2[C@@H](O)[C@@H](CO)O[C@@H](O[C@H]3[C@H](O)[C@@H](O)C(O)O[C@@H]3CO)[C@@H]2O)O[C@H](CO)[C@@H](O)[C@@H]1O (stereo partly shown) [lacto-N-triose] | – | – | Lacto-N-triose is then hydrolysed by NahA, liberating Lactose and GlcNAc
